These are literature values, as cited in patent publication US20240316057A1 (priority 2021, published 2024).

Molecules are shown by their SMILES.

For data set [1] the following is noted: as known to the skilled person.

As to `Cn1c(=O)c2c(ncn2C)n(C)c1=O` [Caffeine, 1,3,7-trimethylxanthine], the “efficacious plasma concentration range” value in data set [1] is 5 to 20 µM.
As to `Cn1cnc2c1c(=O)[nH]c(=O)n2C` [Theobromine, 3,7-dimethylxanthine], the solubility in water entry was “very slightly water-soluble”.
